Experimental data taken from patent US20190352297A1, “SELECTIVE AURORA A KINASE INHIBITORS” (UNIVERSITAT BERN, priority 2017, published 2019).
Where two headings read alike, the source gives them in different places.

Legend:
Aurora A kinase domain = target: T1, Aurora A kinase domain (Homo sapiens, UniProt O14965); assay: HTRF kinase assay, Aurora A; assay type: biochemical; settings: free Aurora A, 20 μM ATP, HTRF; read-out: IC50 Aurora A (biochemical)
T1 construct: human Aurora A kinase domain (residues 122-403 in the pET24-d vector); His-tag (cleaved yes); made in house; host or cells: E. coli BL21 (DE3) Rosetta
T1 sequence (O14965 122-403): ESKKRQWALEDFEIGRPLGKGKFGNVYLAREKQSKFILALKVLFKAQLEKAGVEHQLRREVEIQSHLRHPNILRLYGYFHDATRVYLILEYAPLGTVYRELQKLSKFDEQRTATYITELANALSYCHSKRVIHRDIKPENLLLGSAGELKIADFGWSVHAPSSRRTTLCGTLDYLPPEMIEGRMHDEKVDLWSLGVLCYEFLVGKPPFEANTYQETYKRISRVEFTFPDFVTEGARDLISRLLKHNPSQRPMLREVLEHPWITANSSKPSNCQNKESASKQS
Description: The clone of human Aurora A kinase domain (residues 122-403 in the pET24-d vector) was kindly provided by the Montoya laboratory (University of Copenhagen). The construct was transformed into E. coli BL21 (DE3) Rosetta cells and protein expression was induced with 0.5 mM IPTG at 20° C. for 12 hours. The cells were harvested at 6,000×g for 25 min at 4° C. and resuspended in lysis buffer (50 mM Tris-HCl, 500 mM NaCl, 1 mM PMSF, pH=8.0). Disruption of the cells was performed by sonication cooled on ice, after which the debris were removed by centrifugation at 110,000×g for 30 min at 4° C. Aurora A was purified by affinity chromatography using NiNTA resin from Qiagen following the manufacturer's instructions. After loading, the resin was washed with lysis buffer, followed by a second wash with 6% elution buffer (50 mM Tris-HCl, 500 mM NaCl, 500 mM imidazole, pH=8.0). Protein was eluted with 100% elution buffer. The eluate was exchanged into final buffer (20 mM Tris-HCl, 200 mM NaCl, 0.5 mM EDTA, 2 mM DTT, pH=8.0) using a HiPrep 26/10 desalting column (GE Healthcare). The His-tag was cleaved with TEV protease at 4° C. overnight. […] Protein concentration was determined by UV absorbance. […]
Aurora A and AuroraB kinases were assayed using the homogeneous time-resolved fluorescence (HTRF) KinEASE STK2 kit from Cisbio (France). […] After incubation at room temperature for one hour, fluorescence was measured at 620 nm (europium cryptate) and 665 nm (XL-665) after excitation at 317 nm (lag time 60 μs, integration time 500 μs) using a Tecan Infinite M1000 PRO microplate reader (Greiner 384-well plates, white, non-binding, small volume). The ratio of fluorescence (665 nm/620 nm) was calculated for each well and the results were expressed as follows: specific signal=ratio (sample)−ratio (negative control), where ratio=665 nm/620 nm×10^4. Compounds were measured in threefold serial dilutions at 10 different concentrations, covering the concentration range from no to full inhibition. Each concentration was measured in duplicates, and two independent determinations were made for each IC50 value. […]

HeLa Kyoto cells = assay: Chromosome misalignment during metaphase; assay type: cell-based, human; settings: for misaligned chromosomes: HeLa Kyoto cells
Description: HeLa Kyoto cells were cultured in high-glucose DMEM with GlutaMAX (Life Technologies) media supplemented with 10% fetal calf serum (FCS) in a humidified 5% CO2 incubator at 37° C. For plasmid transfections, cells were seeded at 80-90% confluence. 4 μg of plasmid DNA in 100 μl OptiMEM and 4 μl of Lipofectamine 2000 (Life Technologies) in 100 μl OptiMEM were incubated in parallel for 5 minutes, mixed for 20 minutes and added to each well. All Aurora A clones were constructed using full-length Aurora A as a template with appropriate PCR primer pairs. […] GFP-Aurora AR137A and GFP-Aurora AW277A were engineered using a site directed mutagenesis kit (Agilent Technologies, no. 210515) with appropriate primers. For determining the mitotic index and the chromosome misalignment phenotype, cells were incubated with various concentrations of compounds for 20 h before analysis. Cells were likewise treated with 0.25 μM MLN8237 (Selleckchem, no. S1133) or 5 μM ZM447439 (Selleckchem, no. S1103). For flow cytometry analysis, 50 nM […] and 2.5 μM ZM447439 were used. For rescue experiments, HeLa Kyoto cells were first transfected with GFP-Aurora A, GFP-Aurora AR137A or GFP-Aurora AW277A for 20 h, followed by incubation with 9 for another 20 h before cells were fixed with cold methanol and stained. To assess the impact of compound 9 on cell cycle progression, DNA content was analyzed after propidium iodide staining using FACS (BD Accuri C6 flow cytometer).
For immunofluorescence, cells were fixed in cold methanol, washed in PBT (PBS supplemented with 0.05% Tween-20) and stained with the following primary antibodies: 1:200 rabbit anti-pT288 (Cell Signaling, C39D8), 1:200 rabbit anti-pH3S10 (Cell Signaling, D2C8), 1:500 mouse anti-α-tubulin (Transduction Laboratories, 612709), 1:300 mouse anti-GFP (MAB3580, Millipore), 1:200 anti-TPX2 (Santa Cruz Biotechnology, sc-32863), anti-Aurora A (Invitrogen, 458900). Secondary antibodies were anti-mouse conjugated to Alexa488 or Alexa568, as well as anti-rabbit conjugated to Alexa488 or Alexa568, all used at 1:500 (Invitrogen). Confocal images were acquired on a Zeiss LSM 710 confocal microscope equipped with a Axiocam MRm (B/VVW) CCD camera using a 63×NA 1.0 oil objective and processed in ImageJ and Adobe Photoshop, maintaining relative image intensities within a series.

IC50 (Aurora A kinase domain): 2 ± 0.5 nM | EC50 (HeLa Kyoto cells; cellular activity as summarised in text, read-out: cellular activity EC50): > 1000 nM | EC50 (HeLa Kyoto cells; read-out: phenotypic EC50, defective chromosome alignment during metaphase): 6000 nM
SMILES: CCc1ccc(N=C2SC(=Cc3ccnc(Nc4ccc(C(=O)O)cn4)c3)C(=O)N2C)cc1 [Compound 9]
misaligned chromosomes (HeLa Kyoto cells; 4 μM): ~20% | misaligned chromosomes (HeLa Kyoto cells; 10 μM): ~80% | misaligned chromosomes (HeLa Kyoto cells; 25 μM): ~85%
